Laboratory results taken from patent publication US20080226565A1, “Anticariogenic Proteins & Peptides & Saccharides” (priority 2004, published 2008).

How the values were obtained:
Parameters in all cases: species or system human
[1] = In-vivo: tooth samples treated with peptide, 12 hours in the oral cavity, then acetic acid, Knoop hardness
Method: In another experiment, 126 sterilized tooth samples where treated with a variety of peptides, fixed to the device and positioned after the lower jaw in the oral cavity of 5 volunteers. The device remained in the oral cavity for a period of 12 hours after which the teeth where removed, cleaned and subjected to a drop of acetic acid (0.1N, 30 min., 37° C). Subsequently the acid was removed, the teeth where cleaned and the hardness was measured (Knoop method). The depth of penetration increased 8.82 μm, 5.40 μm, 5.32 μm and 3.77 μm respectively for teeth treated as blanco with 4.2% casein phosphopeptide e-polylysine copolymer, 7.5% phosvitin and with 4.2% bisphosphonylated e-polylysine. The p-values are respectively 0.000, 0.000 and 0.004 for casein phosphopeptide e-polylysine copolymer, bisphosphonylated e-polylysine and phosvitin.
(§1) Tooth samples have been cut in horizontal slices (thickness: 0.3 to 1 mm) with a Leitz 1600 tooth cutter with horizontal cutting blade; the slices are cut manually (with a bore) into small tooth samples that contain a small part of the original tooth surface. The tooth sample is positioned in a small plastic tube, that has been cut from a long plastic tube with 6 mm external diameter. The length of the tube is 3 to 6 mm. The inner part of the tube is filled with a polymer that hardens under light (Photoclearfil Bright; Kuraray). The tooth sample is positioned in the soft polymer inside the tube, in such a way that the original tooth surface is just surfacing above the tube. Finally the polymer is hardened with a light source. The tooth surface is polished with Struers silicon carbid paper (800-4000) and the hardness is measured 5 times on each of the samples under the Letiz Wetzlar microscope (weight on needle: 50 p). Tooth samples with a maximum average depth of penetration of 43 μm are retained for use in the oral cavity.
The tooth-samples are fixed to a device that has been described in the chapter “Description of the invention ( chapter: In-vivo experiments)” and the device is positioned in the oral cavity after the lower jaw.
A drop from a solution containing either, e-polylysine, CPP, bisphoshphonylated e-polylysine, casein phosphopeptide epsilon-polylysine copolymer or partially hydrolysed phosvitin has been positioned at the surface of tooth samples for a period of 30 minutes at 37 C.; the drop was removed and the procedure was repeated once more. All solutions contained also 3.1% CaCl2.2H2O and 1.7% KH2PO4 (except for the one containing e-polylysine).
The tooth surface was cleaned with a soft paper towel until it was visibly clean. Four such tooth samples where fixed to the device and located in the oral cavity behind the lower jaw. They resided in the oral cavity for a period of 12 hours (only to be removed during eating). Subsequently, they where removed, cleaned and the tooth surface was treated with a drop of acetic acid (0.1N, 30 min., 37° C.); the acid was removed, the tooth was washed with deionized water and the hardness was evaluated.
A: type of peptide ingredient in the solution (% on a w/w basis versus water). (*): the teeth where submerged (30 min.) in a saliva batch and dried afterwards on air, before they where treated with a solution that contained bisphosphonylated e-polylysine. B: Average initial hardness of the tooth surface; μm (st. dev.) C: Average hardness after treatment, after residing in the oral cavity and treatment with acid D: The average change in hardness (C−B) E: p-value (against blanco) of the Mann-Whitney statistical test F: the number of tooth samples that where treated with a specific formulation; hardness on each of the tooth samples was measured five times and an average value was calculated; most often 4 tooth samples per person; 5 volunteers participated to the experiment; the 132 tooth samples where randomized into groups (of 4 teeth) with the same average hardness value.

[2] = Determination of the PF-value: Knoop micro hardness of tooth samples coated with product, then saliva and acetic acid (in-vitro)
Description: The capacity to protect teeth against caries can be measured with a technique well known in the art (U.S. Pat. No. 5,279,814). Demineralization with acid, decreases the hardness of the tooth surface. The hardness can be quantified indirectly by measuring the depth of penetration of a needle in the surface (measurement of micro hardness). With this procedure, so called “Knoop” method, the needle is penetrating the surface under the pressure of constant weight and leaves a mark on the surface that allows the calculation of the depth of penetration. The more the tooth is suffering from demineralization, the softer its surface will get and the larger the depth of penetration will be (Knoop F., Peters C. G., Emerson W. B., A Sensitive Pyramidal Diamond Tool for Identation Measurments, J. Res. Natn. Bur. Stand. 23, 39-61 (1939).
The procedure includes the determination of the hardness of a human tooth sample with the Knoop method. Subsequently, the tooth is treated with an experimental protecting product outside the oral cavity.
It is cleaned softly with a paper towel until the coating is invisible.
Subsequently the tooth sample is submerged in a batch of human saliva in order to simulate the conditions in the oral cavity. After removal from the saliva batch (after 30 min.) it is treated with acid over a constant time period of 30 min. at 37° C. The acid is washed away, the tooth is dried on air and the hardness is measured again. The change in hardness (delta P in μm) is obtained by comparing with the hardness of the tooth before treatment. This experiment is repeated on other tooth samples. The effect of acid on unprotected teeth is obtained by carrying out the same procedure but without the use of an experimental protecting product (delta Pa). The protecting capacity (“PF” protection factor) of an experimental protecting compound can be defined as: […]
The ability of a product to protect teeth (PF-value) is determined with the Knoop method. A tooth sample, size 3×3×3 mm is cut from a human tooth and embedded into polymerizing resin in such a way that the surface of the tooth sample appears on the surface of the (resin) cube after the resin has become solid. The surface of the tooth is mechanically polished with rotating silicon carbide abrasive paper (Struers P1200-P2400-P4000) and the micro hardness of the enamel is determined with a Knoop diamant needle (Leitz-Wetzlar;
microdurometer “Durimet”; weight 50 gr; penetration-time: 30 seconds (Collys et al., J. Dent. Res. 1990; 69: 458-462)).
The penetration leaves a mark on the tooth surface, which is related to the depth of penetration (μm) and which can be analyzed under the microscope. […] The determination of the depth of penetration is repeated six times on each of the tooth samples and the average value is calculated. In order to determine the effect of acid on the hardness of the surface, use is made of an acetic acid buffer from Merck (pH 5; 0.1N). One drop of acid is positioned on the enamel for a period of 30 minutes at 37° C. The sample is cleaned with demineralized water and dried. The hardness is measured again according to the method of Knoop. This procedure is repeated 4 times, which means that the sample has been subjected to acid for a total period of two hours.
A graph (Y: penetration depth μm; X: 5 treatment stages) can be made on the basis of 5 average values (each of them based on six measurement), one obtained before treatment with acid, and the other 4 obtained after each of the 4 treatment-stages with acid. A logaritmic regressionline is calculated.

[3] = In-vivo: radiated tooth samples treated with protector, 5 days in the oral cavity, Knoop hardness; conditions: for delta: change of hardness (increase of depth of penetration): radiation + 5 days in oral cavity, 0.1% fluoride or 4% bisphosphonate e-polylysine with CaCl2 and KH2PO4
Description: A device is constructed that can contain up to 6 experimental tooth samples for positioning in the oral cavity. […] The construction of the experimental tooths samples is outlined in chapter C.2.“Results; in-vivo experiments”. In the oral cavity, the tooth samples are positioned in the device in such a way that the enamel surfaces are subjected to physical contact with the tongue and are submerged in saliva. […] In experiments where the device is residing a long time period in the oral cavity (5 days and more), a metal network is positioned just above the surface of the experimental teeth, in order to provide support for the bacteria and stimulate it's growth path. It is also possible to measure the residual protection competence by removing the tooth samples from the oral cavity at the end of the selected residence time and treating them with acid under laboratory conditions.
The device was positioned after the lower jaw in the oral cavity for a period of five days. After removal from the oral cavity, the samples where cleaned and the hardness was measured.
as §1
Tooth samples have been subjected to a radiation dose that is equal to the amount that is given to patients with oral cancer (20 Gray) and have been sterilized. […] A drop of the solution was positioned on the tooth surface and allowed to reside for a period of 30 minutes at 37 C.; the procedure was repeated after removal of the drop with pressured air. Finally the drop was removed, the tooth was dried on air and fixed to the device. In total six tooth samples have been fixed to the device and positioned in the oral cavity after the lower jaw. It remained in the oral cavity for a period of 5 days (day and night). After completion of the required residence time, the device was removed from the oral cavity and the experimental teeth where separated from the device and washed. The hardness was measured according to the Knoop method, six times on each of the tooth samples.
B: the stage at which the hardness of the tooth surface has been measured with the Knoop method. (before the treatment; after radiation and before addition of protector formulation to the surface; after addition of protector to the surface of the tooth and after residing five days in the oral cavity).
B: the stage at which the hardness of the tooth surface has been measured with the Knoop method.

[4] = In-vivo: residual protection, radiated samples after 5 days in oral cavity treated with acetic acid
Description: N: number of tooth samples A: hardness(μm) after radiation and 5 days residence in the oral cavity B: hardness after radiation and 5 days in the oral cavity and treatment with acetic acid

[5] = 4.2% w/w solution, 12 hours oral cavity, acetic acid 0.1N 30 min
[6] = gel: 4.2% hydroxyethylcellulose, 0.3% NaF, pH 8.8

Casein phosphopeptide (CPP) [Product 1, reference compound]
C: Average hardness after treatment, after residing in the oral cavity and treatment with acid [1, 5]: 47.60 (2.53) μm | D: average change in hardness (C−B) [1, 5]: 6.78 μm | B: Average initial hardness of the tooth surface (st. dev.) ([1]; group for 4.2% solution, before treatment): 40.82 (0.73) μm

Partially hydrolyzed phosvitin, (Phos-h) [Product 5]
more protection competence in comparison to natural phosvitin ([2]; versus natural phosvitin): 25%

Natural phosvitin (Phos) [Product 3, reference compound]
D: average change in hardness (C−B) ([1]; 7.5% w/w solution): 5.32 μm

[F-].[Na+] [Product IV, sodium fluoride, reference compound]
PF factor ([2]; 0.1% product/water w/w): 61 | PF ([2]; gel with 0.3% sodium fluoride only): 68% | PF [2, 6]: 68.1 | delta P [2, 6]: 18.8 μm | Mean hardness (depth of penetration) ([3]; after protector and 5 days oral cavity, 0.1% NaF or 4% bisphosphonate e-polylysine with CaCl2 and KH2PO4): 42.77 μm | Mean hardness (depth of penetration) ([3]; after radiation, before addition of protector (baseline of group)): 40.97 μm | delta: change of hardness ([3]; after radiation, before addition of the formulation): −0.13 μm | delta: change of hardness (increase of depth of penetration) [3]: 1.67 μm | delta: change of hardness (increase of depth of penetration) ([3]; listed as NaF): 1.8 μm | Mean hardness (depth of penetration) ([3]; start, before treatment (baseline of group)): 41.10 μm | C: B−A (increase of depth of penetration by acid) ([4]; acetic acid 0.1N, 30 min, 37° C. after 5 days in oral cavity): 6.5 μm | B: hardness after radiation and 5 days in the oral cavity and treatment with acetic acid ([4]; acetic acid 0.1N, pH 5, 30 min, 37° C.): 48.4 μm | A: hardness after radiation and 5 days residence in the oral cavity ([4]; samples later treated with acid): 41.9 μm

Polymerized (CPP) = (CPP)n [Product 2]
PF factor ([2]; 7.2% product/water w/w): 58

NC(CO)(CO)CO [Product V, Tris(hydroxymethyl)aminoethane, reference compound]
PF factor ([2]; 3.4% product/water w/w): 35
